Experimental data: patent US9320281B2, “Readied in situ glyphosate herbicide soluble powder composition and its preparation process” (ALLVET QUIMICA INDUSTRIAL LTDA., priority 2011, dated 2016)
Values joined by “and” are separate entries in the source; they are usually repeats but may differ in a detail not shown here. Identical values can stand only once.

Assays:
[1] = cited from earlier work
daphnia = assay: Acute daphnia immobilization EC50, OECD 202; format: in vivo; settings: for times less toxic for daphnia compared to a fatty amine ethoxylate: in vivo
Excerpt: (§1) The low toxicity of coconut fatty acid copolymers with glycerol is illustrated by the following table

Fish = Fish toxicology LC50, OECD 203, 96 h; format: in vivo; settings: for Fish toxicology LC50: OECD 203, 96 h; for times less toxic for fish compared to a fatty amine ethoxylate: in vivo
Excerpt: as §1

rabbits = assay: Eye irritation rabbits; settings: rabbit, in vivo
[2] = 1,4-Dioxane content (carcinogen)
Excerpt: The inevitable presence of 1,4-dioxane in all ethoxylated products is the reason why all ethoxylates including coco amide ethoxylates were excluded from consideration in the product of the present invention.

rats = assay: Acute oral toxicology LD50 in rats; format: in vivo
variety of weeds = assay: Extensive field tests in Brazil and South Africa versus standard 360 g/liter liquid formulation; format: in vivo; settings: surfactant in the glyphosate formulation
Protocol: The product was extensively tested on the field. During eighteen months the soluble powder formulation was applied in different dosages on a variety of weeds in the state of Paraná, Brazil and in the province of […] in the Republic of South Africa and the results were compared with those obtained applying the standard product 360 g/liter liquid formulation side by side on the same fields.
More than one hundred field tests of the Soluble Powder were carried out. Each test consisted in applying different dosages of glyphosate acid on the field using the Soluble Powder object of the present invention and similar dosages of the standard 360 g/liter liquid formulation and comparing the results obtained side by side on the same field. Phytotoxicity of the weeds was measured by sampling and visual counting. All results were recorded and photographs taken before and after the tests.

Row | Compound | Biodegradability (Biodegradability) | times less toxic for daphnia compared to a fatty amine ethoxylate (daphnia) | Fish toxicology LC50 (Fish) | times less toxic for fish compared to a fatty amine ethoxylate (Fish) | Eye irritation rabbits (rabbits) | other results
1 | O=C(O)CNCP(=O)(O)O [Glyphosate, N-(phosphonomethyl)-glycine] |  |  |  |  |  | solubility in water [1]: insoluble
2 | Coco amide propyl amine oxide | >90% | 100 times | 6 mg/l and >6 mg/l | 15 times | Irritant | 
3 | Fatty amine ethoxylate [reference compound] | <60% |  | 0.42 mg/l |  | Serious eye | Acute daphnia immobilization EC50 (daphnia; OECD 202): 0.46 µg/mL; 1,4-Dioxane content (carcinogen) [2]: Up to 25,000 ppm; Acute oral toxicology LD50 (rats): 200-2000 mg/kg
4 | coco amide propyl betaine |  | 100 times |  | 15 times |  | efficiency as surfactant compared with coco amide propyl amine oxide (variety of weeds): just as efficient
5 | coconut oil polymer with glyceryl and phthalic anhydride | >42% |  |  |  |  | 
